# From US6503885B1, “Carboxymethylgalactose derivatives” (Otsuka Pharmaceutical Co., Ltd., priority 1998, dated 2003)
# Legend:
# Type in all cases: cell-based
# [1] = system: P-selectin-IgG; experiment: Binding inhibitory activity test: HL-60 cell binding to immobilized P-selectin-IgG; conditions: 0.3 mM test compound; HL-60 cells; 20 ng P-selectin-IgG per well; average of 5 wells ± SE
# [2] = system: L-selectin-IgG; experiment: Binding inhibitory activity test: HL-60 cell binding to immobilized L-selectin-IgG; conditions: 0.3 mM test compound; HL-60 cells; 100 ng L-selectin-IgG; average of 5 wells ± SE
# Protocol: [The source words this procedure for another target and says it was used here with some conditions changed.] (§1) The binding inhibitory activity of the test compound was measured in terms of the inhibition of binding of premyelocytic leukemia HL-60 cells to immobilized recombinant selectin-IgG fusion proteins by addition of the test compound to the binding reaction system, in accordance with the method described in the above-identified reference.
# (§2) Stated more specifically, 20 ng of purified P-selectin-IgG was added to each well of a microtiter plate (96 wells, Nunc Maxisorp) and immobilized. Phosphate buffered saline (PBS) was added to each well to make a total volume of 100 μl and the plate was allowed to stand at 4° C. overnight. The excess solution was removed by aspiration, and non-specific binding sites were blocked with PBS containing 1% bovine serum albumin (BSA) at room temperature for 1 hour. After removal of the blocking solution by aspiration, 0.3 mM of the test compound as dissolved in 100 μl of a binding buffer (RPMI1640), and 10^6 cells/ml of HL-60 cells as suspended in 100 μl of the binding buffer were added to each well. The plate was centrifuged at 500 rotations per minute for 2 minutes at room temperature, and each well was filled with the binding buffer. The plate was carefully sealed with an adhesive tape so as to avoid trapping any air bubbles. The plate was turned upside down and centrifuged at 500 rotations per minute for 10 minutes to remove unbound HL-60 cells. The adhesive tape was peeled off and the buffer was removed by aspiration. The number of cells bound/well was determined using a cell counting kit (WST-1 assay kit, product of Dojin Kagaku K.K.) (M. Ishiyama. M. Shiga, M. Mizoguchi and P. He, Chem. Pharm. Bull., 41, 1118-1122 (1994)).
# (§3) The binding inhibition (%) was calculated from the number (M) of bound cells achieved in the test using the test compound and the number (N) of bound cells achieved in the comparative test not using the test compound, according to the following equation:
# (§4) Binding inhibition (%)=100×(N−M)/N […]
# (§5) The data were expressed as an average value of 5 wells±standard error (SE).
# [3] = system: E-selectin-IgG; experiment: Binding inhibitory activity test: HL-60 cell binding to immobilized E-selectin-IgG; conditions: 0.3 mM test compound; HL-60 cells; 40 ng E-selectin-IgG; average of 5 wells ± SE
# Protocol: [The source words this procedure for another target and says it was used here with some conditions changed.] as §1, §2, §3, §4, §5
compound,measurement,setting,value
"CCCCCCCCCCCCCCC(CCCCCCCCCCCCCC)CO[C@@H]1O[C@H](CO)[C@H](O)[C@H](OS(=O)(=O)O)[C@H]1O [Comparative compound, 2-(tetradecyl)hexadecyl 3-O-sulfo-β-D-galactopyranoside]",Binding inhibition (%) P-selectin,[1],6 ± 3%
same,Binding inhibition (%) L-selectin,[2],13 ± 3%
same,Binding inhibition (%) E-selectin,[3],0 ± 5%
"CCCCCCCCCCCCCCC(CCCCCCCCCCCCCC)CO[C@@H]1O[C@H](CO)[C@H](O)[C@H](CC(=O)O)[C@H]1O [Compound of the invention, 2-(tetradecyl)hexadecyl 3-deoxy-3-C-(carboxymethyl)-β-D-glactopyranoside]",Binding inhibition (%) P-selectin,[1],79 ± 3%
same,Binding inhibition (%) L-selectin,[2],92 ± 3%
same,Binding inhibition (%) E-selectin,[3],12 ± 8%
sialyl Lewis-x [SLe^x],Binding inhibition (%) P-selectin,[1],3 ± 6%
same,Binding inhibition (%) L-selectin,[2],0 ± 5%
same,Binding inhibition (%) E-selectin,[3],0 ± 4%
